Measurements reported in patent publication US20030162762A1, “Novel cephalosporin compounds and process for preparing the same” (priority 2000, published 2003).
In brackets after ≈: the same amount, converted by molar mass. Where two headings read alike, the source gives them in different places.

Tests used:
Assay in all cases: Minimum Inhibitory Concentration (MIC), agar dilution, standard strains
[1] = tested on: Staphylococcus aureus giorgio; type: cell-based; settings: for MIC: Staphylococcus aureus, read-out: Minimum Inhibitory Concentration, Staphylococcus aureus giorgio
Procedure: (§1) The effectiveness of the compound according to the present invention was determined by obtaining Minimum Inhibitory Concentration (MIC) of the compounds prepared by the above examples (Compounds I-1 to I-41) and vancomycin, which is the known compound having a potent activity against gram-positive strains, as the control drug against the standard strains. Specifically, Minimum Inhibitory Concentration was obtained by diluting the test compound according to a double dilution method, dispersing them in Mueller-Hinton agar medium, inoculating each of the test strain having 10^7 cfu (colony forming unit) per ml in an amount of 2 μl to the medium and then incubating them at 37° C. for 20 hours. From the result of Minimum Inhibitory Concentration test, it can be seen that the compound according to the present invention has a good activity against major pathogenic microorganisms, which cause hospital infection, including MRSA strains.

S. epidermidis R005 = type: cell-based; settings: for MIC: Staphylococcus epidermidis, read-out: Minimum Inhibitory Concentration, S. epidermidis R005
Procedure: as §1

E. faecalis EFS004 = type: cell-based; settings: for MIC: Enterococcus faecalis, read-out: Minimum Inhibitory Concentration, E. faecalis EFS004
Procedure: as §1

S. aureus 77 = type: cell-based, Staphylococcus aureus; settings: for MIC: read-out: Minimum Inhibitory Concentration, S. aureus 77
Procedure: as §1

S. aureus K311 = type: cell-based, Staphylococcus aureus; settings: for MIC: Staphylococcus aureus, read-out: Minimum Inhibitory Concentration, S. aureus K311
Procedure: as §1

E. faecalis L239 = type: cell-based; settings: Enterococcus faecalis, L239, 20 h, read-out: Minimum Inhibitory Concentration, E. faecalis L239
Procedure: as §1

S. aureus 241 = type: cell-based, Staphylococcus aureus; settings: Staphylococcus aureus, 241, 20 h, read-out: Minimum Inhibitory Concentration, S. aureus 241
Procedure: as §1

[2] = Table 2, Mueller-Hinton agar, 37° C., 20 hours
[3] = R005, Table 2, Mueller-Hinton agar, 37° C., 20 hours
[4] = EFS004, Table 2, Mueller-Hinton agar, 37° C., 20 hours
[5] = Staphylococcus aureus, 77, Table 2, Mueller-Hinton agar, 37° C., 20 hours
[6] = K311, Table 2, Mueller-Hinton agar, 37° C., 20 hours

Compound	Minimum Inhibitory Concentration, Staphylococcus aureus giorgio [1, 2]	Minimum Inhibitory Concentration, S. epidermidis R005 (S. epidermidis R005; [2])	Minimum Inhibitory Concentration, E. faecalis EFS004 (E. faecalis EFS004; [2])	Minimum Inhibitory Concentration, S. aureus 77 (S. aureus 77; [2])	Minimum Inhibitory Concentration, S. aureus K311 (S. aureus K311; [2])	MIC [1, 2]	MIC (S. epidermidis R005; [3])	MIC (E. faecalis EFS004; [4])	MIC (S. aureus 77; [5])	MIC (S. aureus K311; [6])	further results
Cn1c(N)n[n+]2c(SC/C=C/C3=C(C(=O)O)N4C(=O)[C@@H](NC(=O)CSc5cc(Cl)nc(Cl)c5)[C@H]4SC3)nc(N)cc12 [Compound I-14, 2,7-diamino-5-({(E)-3-[(6R,7R)-2-carboxy-7-({2-[(2,6-dichloro-4-pyridinyl)sulfanyl]acetyl}amino)-8-oxo-5-thia-1-azabicyclo[4.2.0]oct-2-en-3-yl]-2-propenyl}sulfanyl)-1-methyl-1H-[1,2,4]triazolo[1,5-c]pyrimidin-4-ium]	<0.008 µg/mL	0.13 µg/mL	1 µg/mL	0.13 µg/mL	0.25 µg/mL						
Nc1nc(SC/C=C/C2=C(C(=O)O)N3C(=O)[C@@H](NC(=O)CSc4cc(Cl)nc(Cl)c4)[C@H]3SC2)nc2[nH]ncc12 [Compound I-9, (6R,7R)-3-{(E)-3-[(4-amino-1H-pyrazolo[3,4-d]pyrimidin-6-yl)sulfanyl]-1-propenyl}-7-({2-[(2,6-dichloro-4-pyridinyl)sulfanyl]acetyl}amino)-8-oxo-5-thia-1-azabicyclo[4.2.0]oct-2-ene-2-carboxylic acid]						0.031 µg/mL (≈ 0.0496 µM)	0.5 µg/mL (≈ 0.799 µM)	1 µg/mL (≈ 1.6 µM)	0.25 µg/mL (≈ 0.4 µM)	1 µg/mL (≈ 1.6 µM)	
Nc1cc(SC/C=C/C2=C(C(=O)O)N3C(=O)[C@@H](NC(=O)CSc4cc(Cl)nc(Cl)c4)[C@H]3SC2)nc(N)n1 [Compound I-11, (6R,7R)-3-{(E)-3-[(2,6-diamino-4-pyrimidinyl)sulfanyl]-1-propenyl}-7-( {2-[(2,6-dichloro-4-pyridinyl)sulfanyl]acetyl}amino)-8-oxo-5-thia-1-azabicyclo[4.2.0]oct-2-ene-2-carboxylic acid]						0.016 µg/mL (≈ 0.0266 µM)	0.5 µg/mL (≈ 0.833 µM)	2 µg/mL (≈ 3.33 µM)	0.25 µg/mL (≈ 0.416 µM)	0.5 µg/mL (≈ 0.833 µM)	
Nc1nc(SC/C=C/C2=C(C(=O)O)N3C(=O)[C@@H](NC(=O)CSc4cc(Cl)nc(Cl)c4)[C@H]3SC2)c2c([n+]1N)CCC2 [Compound I-17, 1,2-diamino-4-({(E)-3-[(6R,7R)-2-carboxy-7-({2-[(2,6-dichloro-4-pyridinyl)sulfanyl]acetyl}amino)-8-oxo-5-thia-1-azabicyclo[4.2.0]oct-2-en-3-yl]-2-propenyl}sulfanyl)-6,7-dihydro-5H-cyclopenta[d]pyrimidin-1-ium]	<0.008 µg/mL	0.25 µg/mL	0.5 µg/mL	0.25 µg/mL	0.5 µg/mL						
CCSc1nc(C)cc(SC/C=C/C2=C(C(=O)O)N3C(=O)[C@@H](NC(=O)CSc4cc(Cl)nc(Cl)c4)[C@H]3SC2)n1 [Compound I-12, (6R,7R)-7-({2-[(2,6-dichloro-4-pyridinyl)sulfanyl]acetyl}amino)-3-((E)-3-{[2-(ethylsulfanyl)-6-methyl-4-pyrimidinyl]sulfanyl}-1-propenyl)-8-oxo-5-thia-1-azabicyclo[4.2.0]oct-2-ene-2-carboxylic acid]						0.031 µg/mL (≈ 0.0481 µM)	0.5 µg/mL (≈ 0.776 µM)	0.5 µg/mL (≈ 0.776 µM)	0.5 µg/mL (≈ 0.776 µM)	1 µg/mL (≈ 1.55 µM)	
O=C(CSc1cc(Cl)nc(Cl)c1)N[C@@H]1C(=O)N2C(C(=O)O)=C(/C=C/CSc3nc(O)cc(NCCO)n3)CS[C@H]12 [Compound I-15, (6R,7R)-7-({2-[(2,6-dichloro-4-pyridinyl)sulfanyl]acetyl}amino)-3-[(E)-3-({4-hydroxy-6-[(2-hydroxyethyl)amino]-2-pyrimidinyl]sulfanyl}-1-propenyl]-8-oxo-5-thia-1-azabicyclo[4.2.0]oct-2-ene-2-carboxylic acid]						0.031 µg/mL (≈ 0.048 µM)	0.5 µg/mL (≈ 0.775 µM)	1 µg/mL (≈ 1.55 µM)	0.5 µg/mL (≈ 0.775 µM)	0.5 µg/mL (≈ 0.775 µM)	
Nc1cc(N)nc(SC/C=C/C2=C(C(=O)O)N3C(=O)[C@@H](NC(=O)CSc4cc(Cl)nc(Cl)c4)[C@H]3SC2)n1 [Compound I-8, (6R,7R)-3-{(E)-3-[(4,6-diamino-2-pyrimidinyl)sulfanyl]-1-propenyl}-7-({2-[(2,6-dichloro-4-pyridinyl)sulfanyl]acetyl}amino)-8-oxo-5-thia-1-azabicyclo[4.2.0]oct-2-ene-2-carboxylic acid]						0.031 µg/mL (≈ 0.0516 µM)	0.5 µg/mL (≈ 0.833 µM)	1 µg/mL (≈ 1.67 µM)	0.25 µg/mL (≈ 0.416 µM)	0.5 µg/mL (≈ 0.833 µM)	
Nc1cc(N)[n+](C/C=C/C2=C(C(=O)O)N3C(=O)[C@@H](NC(=O)CSc4cc(Cl)nc(Cl)c4)[C@H]3SC2)cn1 [Compound I-18]	0.016 µg/mL	0.25 µg/mL	1 µg/mL	0.25 µg/mL	1 µg/mL						
CN[C@H](CC(C)C)C(=O)N[C@H]1C(=O)N[C@@H](CC(N)=O)C(=O)N[C@H]2C(=O)N[C@H]3C(=O)N[C@H](C(=O)N[C@H](C(=O)O)c4cc(O)cc(O)c4-c4cc3ccc4O)[C@H](O)c3ccc(c(Cl)c3)Oc3cc2cc(c3O[C@@H]2O[C@H](CO)[C@@H](O)[C@H](O)[C@H]2O[C@H]2C[C@](C)(N)[C@H](O)[C@H](C)O2)Oc2ccc(cc2Cl)[C@H]1O [Vancomycin, vancomycin, reference compound]	1 µg/mL	1 µg/mL		1 µg/mL							MIC (E. faecalis L239): 2 µg/mL (≈ 1.38 µM); MIC ([1]; 20 h): 1 µg/mL (≈ 0.69 µM); MIC (S. epidermidis R005; R005, 20 h): 1 µg/mL (≈ 0.69 µM); MIC (E. faecalis EFS004; EFS004, 20 h): 2 µg/mL (≈ 1.38 µM); MIC (S. aureus 241): 2 µg/mL (≈ 1.38 µM); MIC (S. aureus 77; Staphylococcus aureus, 77, 20 h): 1 µg/mL (≈ 0.69 µM); MIC (S. aureus K311; K311, 20 h): 2 µg/mL (≈ 1.38 µM)
O=C(CSc1cc(Cl)nc(Cl)c1)N[C@@H]1C(=O)N2C(C(=O)O)=C(/C=C/CSc3ncnc4[nH]ncc34)CS[C@H]12 [Compound I-7, (6R,7R)-7-({2-[(2,6-dichloro-4-pyridinyl)sulfanyl]acetyl}amino)-8-oxo-3-[(E)-3-(1H-pyrazolo[3,4-d]pyrimidin-4-ylsulfanyl]-1-propenyl]-5-thia-1-azabicyclo[4.2.0]oct-2-ene-2-carboxylic acid]						< 0.008 µg/mL	0.25 µg/mL (≈ 0.409 µM)	0.5 µg/mL (≈ 0.819 µM)	0.25 µg/mL (≈ 0.409 µM)	0.5 µg/mL (≈ 0.819 µM)	
